Measurements published in publication PMC5382548 (Scientific Reports, 2015).

Assays:
[1] = test system: KRAS21R G4; assay: FRET melting assay, KRAS21R G4; format: binding, human; details: G4 0.2 μM, ligand 1 μM, K-cacodylate buffer pH 7.4, 60 mM K+
Experimental: Fluorescence resonance energy transfer (FRET) studies with DNA sequences labelled at the 5′ and 3′ ends, were conducted to evaluate the G4 DNA stabilizing properties of IQcs (at 0.1 to 5 μM ligand concentrations). The G4-forming sequence KRAS21R[11], together with T-loop, a 26-mer hairpin double-stranded DNA (ds-DNA) sequence were used in the first screening assay. Reproducible IQc dose-dependent melting curves (Sup. Inf.; Figure S3) and stabilization temperature (ΔTm) values were obtained (Figure 2 and Table S5).
Figure 2 FRET stabilization temperatures (ΔTm) of KRAS21R G4 and hairpin ds-DNA (T-loop) at 0.2 μM, in K-cacodylate buffer (pH = 7.4, 60 mM K^+), stabilized by IQc derivatives and TMPyP4 at 1 μM. ^a) SD ≤ 0.2°C. TEXT PRINTED IN THE PICTURE: TMPyP4: ΔTm / °C ^a) (T-Loop): 16.0; ΔTm / °C ^a) (KRAS21R): 25.1 | 3e: ΔTm / °C ^a) (T-Loop): 6.5; ΔTm / °C ^a) (KRAS21R): 22.0 | 3d: ΔTm / °C ^a) (T-Loop): 5.6; ΔTm / °C ^a) (KRAS21R): 19.9 | 2d: ΔTm / °C ^a) (T-Loop): 6.1; ΔTm / °C ^a) (KRAS21R): 15.1 | 2a: ΔTm / °C ^a) (T-Loop): 1.5; ΔTm / °C ^a) (KRAS21R): 4.4 […]
(§1) Oligonucleotide sequences were purchased from Eurofins MWG Synthesis GmbH, Germany or STAB VIDA Genomics Lab, Caparica, Lisbon, Portugal. The labelled oligonucleotides used in the FRET assays had attached the donor fluorophore FAM (6-carboxyfluorescein) and the acceptor fluorophore TAMRA (6-carboxytetramethylrhodamine): KRAS21R: 5′-FAM-[…]-TAMRA-3′; KRAS32R: 5′-FAM-[…]-TAMRA-3′; UTR-1: 5′-FAM-GCGGCGGCGGAGG-TAMRA-3′; UTR-2: 5′-FAM-[…]-TAMRA-3; T-Loop:5′-FAM-[…]-TAMRA-3′; F21T: 5′-FAM-[…]-TAMRA-3′. Non-labelled oligonucleotides were used in FRET competition assays and in the spectroscopic studies: ds26: - d(5′-CAATCGGATCGAATT CGATCCGATTG-3′); KRAS21R: 5′-[…]-3′; HT21: 5′-[…]-3′. Each oligonucleotide was initially diluted to a storage solution at 100 μM in nuclease-free water (not DEPC-treated), purchased from Ambion Applied Biosystems UK.
(§2) The ability of indolo[3,2-c]quinolines to stabilize DNA sequences was investigated using a Fluorescence Resonance Energy Transfer (FRET) assay as reported elsewhere.
Figure S3 (cont.)| Concentration-dependent (0.1, 0.5, 1, 2, 3, 4 and 5 µM) FRET melting profiles of G4 structures and T-loop DNA with indolo[3,2-c]quinoline derivatives 1a, 2a-g and 3d-j in K-cacodylate buffer (pH 7.4, 60 mM K+). […]
Table S5 | FRET stabilization temperatures (ΔTm) of G4s sequences and ds-DNA (0.2 µM) stabilized by […]

[2] = test system: F21T G4 (human telomeric sequence); assay: FRET melting assay, F21T telomeric G4; format: binding; details: G4 0.2 μM, ligand 1 μM
Experimental: Two compounds 2d and 3e were selected and evaluated for their ability to stabilize the 32-mer sequence in the NHE of the human KRAS promoter (KRAS32R)[12], two G4 motifs in the 5′UTR of KRAS mRNA (UTR-1 and UTR-2)[24] and a 21-mer DNA G4 from the human telomeric sequence (F21T). The KRAS32R sequence has been described as forming two G4 structures which exist in equilibrium. One sequence folds into a G4 (Q1) with a Tm of ~55°C that is disrupted on increasing the temperature and then, the full-length 32-mer sequence folds into a new G4 (Q2, Tm of ~72°C)[13]. In our assay, the KRAS32R sequence (in the presence or absence of IQcs) folded in a single G4 structure (Tm ≈ 54°C), as shown by the single inflection for the first derivative of the FRET melting data (Sup. Inf.; Figure S4). This monophasic behaviour was also observed in the presence of TMPyP4[13].
as §1, §2

[3] = test system: KRAS21R (DNA, G4) AGGGCGGTGTGGGAAGAGGGA; assay: spectrofluorimetric titration, one-site Hill slope fit; details: 60 mM K+, K-cacodylate pH 7.4, 25 °C, 1 μM compound, apparent, SD ≤ 0.2 × 10^6

| SMILES | FRET stabilization temperature ΔTm (KRAS21R) [1] [°C] | ΔTm F21T [2] [°C] | Ka ([3]; Hill 2.4) [M⁻¹] | Ka ([3]; Hill 2.0) [M⁻¹] |
| --- | --- | --- | --- | --- |
| CCN(CC)CCCNc1ccc2[nH]c3c(c[n+](C)c4ccc(NCCCN(CC)CC)cc34)c2c1.[Cl-] [3d] | 19.9 |  |  |  |
| CCN(CC)CCCNc1ccc2c(c1)[nH]c1c2c[n+](C)c2ccc(NCCCN(CC)CC)cc12.[Cl-] [3e] | 22.0 | 30.7 | 8.6e+06 |  |
| C[n+]1ccc(-c2c3nc(c(-c4cc[n+](C)cc4)c4ccc([nH]4)c(-c4cc[n+](C)cc4)c4ccc([nH]4)c(-c4cc[n+](C)cc4)c4nc2C=C4)C=C3)cc1 [TMPyP4, reference compound] | 25.1 |  |  |  |
| Cn1cc2c3ccccc3nc-2c2cc(Br)ccc21 [2a, 2-bromo-5-methyl-indolo[3,2-c]quinoline] |  | 5.6 |  |  |
| CCN(CC)CCCNc1ccc2c(c1)c1[nH]c3ccccc3c1c[n+]2C [2d] | 15.1 | 17.7 |  | 4.4e+06 |
